Experimental data from ChEMBL document CHEMBL4732252, “Generating Selective Leads for Mer Kinase Inhibitors-Example of a Comprehensive Lead-Generation Strategy” (J Med Chem, 2021).
≈ marks a conversion by molar mass, not a printed value.

Experiments:
[1] = Intrinsic clearance in rat hepatocytes assessed per 10^6 cells; format: ADME, cell-based, Hepatocyte; conditions: read-out: CLH
[2] = Aqueous solubility of the compound; format: physicochemical
[3] = molecular target: T1, Receptor-type tyrosine-protein kinase FLT3 (Homo sapiens, UniProt P36888); experiment: Inhibition of His6/TEV fused-GST-tagged Flt3 (unknown origin) (H564 to S993 residues) using Axltide (CKKSRGDYMTMQJ-acid) peptide as substrate preincubated for 30 mins followed by substrate addition in presence of ATP and measured for 90 mins by ADP-Glo Reagent based method
T1 sequence (P36888 whole entry): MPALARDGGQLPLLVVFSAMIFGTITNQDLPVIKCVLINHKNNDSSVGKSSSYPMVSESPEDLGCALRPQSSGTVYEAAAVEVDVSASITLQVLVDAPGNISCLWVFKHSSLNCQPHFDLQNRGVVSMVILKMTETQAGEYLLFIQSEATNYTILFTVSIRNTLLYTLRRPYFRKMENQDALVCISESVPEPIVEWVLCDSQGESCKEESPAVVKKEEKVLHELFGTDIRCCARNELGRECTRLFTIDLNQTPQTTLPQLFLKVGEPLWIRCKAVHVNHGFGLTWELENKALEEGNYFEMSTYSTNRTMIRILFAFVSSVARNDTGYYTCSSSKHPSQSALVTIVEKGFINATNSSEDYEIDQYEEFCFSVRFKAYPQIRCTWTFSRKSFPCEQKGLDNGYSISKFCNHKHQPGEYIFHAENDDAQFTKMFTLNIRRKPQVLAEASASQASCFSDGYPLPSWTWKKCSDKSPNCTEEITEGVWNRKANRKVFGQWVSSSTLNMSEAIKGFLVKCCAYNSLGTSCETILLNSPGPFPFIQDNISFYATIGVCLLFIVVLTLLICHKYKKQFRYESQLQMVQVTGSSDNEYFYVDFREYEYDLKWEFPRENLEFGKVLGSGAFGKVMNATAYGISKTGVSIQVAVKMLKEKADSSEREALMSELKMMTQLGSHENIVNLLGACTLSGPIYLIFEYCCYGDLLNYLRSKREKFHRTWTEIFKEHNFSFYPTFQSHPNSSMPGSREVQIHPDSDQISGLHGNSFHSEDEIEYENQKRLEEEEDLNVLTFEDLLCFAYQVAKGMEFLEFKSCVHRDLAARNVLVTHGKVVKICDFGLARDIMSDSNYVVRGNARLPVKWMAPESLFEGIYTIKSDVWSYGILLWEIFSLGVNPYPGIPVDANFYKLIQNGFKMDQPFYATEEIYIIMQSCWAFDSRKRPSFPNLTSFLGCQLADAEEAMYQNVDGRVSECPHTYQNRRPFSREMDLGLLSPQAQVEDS

[4] = Distribution coefficient, logD of compound at pH 7.4; format: physicochemical; conditions: octanol/water
[5] = molecular target: T2, Tyrosine-protein kinase receptor UFO (Homo sapiens, UniProt P30530); experiment: Inhibition of GST-tagged AXL (unknown origin) ([…] residues) using Axltide (CKKSRGDYMTMQJG-acid) peptide as substrate preincubated for 30 mins followed by substrate and ATP addition at Km concentration measured after 40 mins by ADP-Glo Reagent based method
T2 sequence (P30530 whole entry): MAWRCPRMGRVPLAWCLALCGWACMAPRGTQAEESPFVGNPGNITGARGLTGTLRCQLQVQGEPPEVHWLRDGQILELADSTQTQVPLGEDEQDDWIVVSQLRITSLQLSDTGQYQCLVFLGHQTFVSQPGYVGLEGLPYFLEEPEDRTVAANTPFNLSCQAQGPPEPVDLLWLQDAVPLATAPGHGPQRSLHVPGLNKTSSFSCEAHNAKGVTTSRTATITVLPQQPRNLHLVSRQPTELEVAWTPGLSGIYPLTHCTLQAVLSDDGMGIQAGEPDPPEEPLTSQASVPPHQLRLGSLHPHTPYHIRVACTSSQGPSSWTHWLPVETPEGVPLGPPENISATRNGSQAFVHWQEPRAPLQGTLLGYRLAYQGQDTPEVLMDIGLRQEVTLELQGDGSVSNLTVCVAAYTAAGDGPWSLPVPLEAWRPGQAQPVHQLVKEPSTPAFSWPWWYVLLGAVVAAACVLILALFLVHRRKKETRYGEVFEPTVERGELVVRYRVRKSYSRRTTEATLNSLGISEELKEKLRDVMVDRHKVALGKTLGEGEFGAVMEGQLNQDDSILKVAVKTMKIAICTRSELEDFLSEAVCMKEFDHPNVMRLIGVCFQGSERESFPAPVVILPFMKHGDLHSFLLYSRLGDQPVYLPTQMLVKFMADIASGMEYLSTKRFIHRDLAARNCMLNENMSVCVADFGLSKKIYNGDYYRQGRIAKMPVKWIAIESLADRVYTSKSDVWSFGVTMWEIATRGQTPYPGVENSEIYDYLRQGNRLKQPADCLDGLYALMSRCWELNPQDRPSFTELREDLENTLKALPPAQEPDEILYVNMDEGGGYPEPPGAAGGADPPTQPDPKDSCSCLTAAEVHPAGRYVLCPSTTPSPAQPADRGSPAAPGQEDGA

[6] = molecular target: T3, Tyrosine-protein kinase Mer (Homo sapiens, UniProt Q12866); experiment: Inhibition of 6His/thrombin cleavage site-fused Avi-tagged dephosphorylated MER (unknown origin) (R528 to M999 residues) using Axltide (CKKSRGDYMTMQJG-acid) peptide as substrate preincubated for 30 mins followed by substrate and ATP addition at Km concentration measured after 120 mins by RapidFire LC-MS analysis
T3 sequence (Q12866 whole entry): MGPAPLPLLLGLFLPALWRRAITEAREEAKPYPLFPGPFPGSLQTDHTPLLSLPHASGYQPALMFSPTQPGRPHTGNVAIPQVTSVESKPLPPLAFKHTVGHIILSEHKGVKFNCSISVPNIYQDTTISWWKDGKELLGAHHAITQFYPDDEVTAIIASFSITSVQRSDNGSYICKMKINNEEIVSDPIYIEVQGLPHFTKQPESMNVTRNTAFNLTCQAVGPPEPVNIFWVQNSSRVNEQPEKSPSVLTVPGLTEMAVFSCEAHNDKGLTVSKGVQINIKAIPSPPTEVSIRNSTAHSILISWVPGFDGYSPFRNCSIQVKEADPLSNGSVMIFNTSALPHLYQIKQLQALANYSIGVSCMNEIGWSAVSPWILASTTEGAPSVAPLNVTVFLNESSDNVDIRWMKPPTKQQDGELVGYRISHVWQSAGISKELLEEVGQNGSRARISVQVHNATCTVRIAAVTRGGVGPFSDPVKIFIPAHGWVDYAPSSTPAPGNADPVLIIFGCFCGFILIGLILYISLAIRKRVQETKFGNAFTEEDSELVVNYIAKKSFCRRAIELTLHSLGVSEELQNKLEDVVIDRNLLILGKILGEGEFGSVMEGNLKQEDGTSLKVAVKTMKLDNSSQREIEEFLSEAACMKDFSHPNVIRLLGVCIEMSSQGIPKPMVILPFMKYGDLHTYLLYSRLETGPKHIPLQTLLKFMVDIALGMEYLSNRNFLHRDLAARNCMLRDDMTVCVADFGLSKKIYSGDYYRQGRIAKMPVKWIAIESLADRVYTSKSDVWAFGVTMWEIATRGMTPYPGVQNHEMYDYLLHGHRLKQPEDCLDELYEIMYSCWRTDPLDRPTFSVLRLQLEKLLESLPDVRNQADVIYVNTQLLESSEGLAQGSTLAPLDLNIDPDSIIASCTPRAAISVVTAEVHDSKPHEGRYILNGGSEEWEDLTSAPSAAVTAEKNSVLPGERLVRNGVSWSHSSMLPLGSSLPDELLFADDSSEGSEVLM

[7] = Intrinsic clearance in human liver microsomes; format: ADME, Microsome; conditions: read-out: CLH
[8] = molecular target: T2, Tyrosine-protein kinase receptor UFO; experiment: Inhibition of GST-tagged AXL (unknown origin) ([…] residues) using Axltide (CKKSRGDYMTMQJG-acid) peptide as substrate preincubated for 30 mins followed by substrate and ATP addition at Km concentration measured after 180 mins by RapidFire LC-MS analysis
[9] = molecular target: T1, Receptor-type tyrosine-protein kinase FLT3; experiment: Inhibition of His6/TEV fused-GST-tagged Flt3 (unknown origin) (H564 to S993 residues) using Axltide (CKKSRGDYMTMQJ-acid) peptide as substrate preincubated for 30 mins followed by substrate and ATP addition at Km concentration measured after 75 mins by RapidFire LC-MS analysis

In the case of CNC(=O)c1cnc(Nc2ccc(OC)cc2C)nc1NC1CCCC1, the hepatocyte CLint [1] is reported as 130 µL/min/1e6 cells, the solubility [2] is reported as 10 µM (≈ 3.55 µg/mL) and the IC50 [3] is reported as > 79.4 µM. For the same molecule, the logD [4] was 4.2, the IC50 [5] was 31600 nM and the IC50 [6] was 794 nM. It also gave a microsomal CLint [7] of 37 µL/min/mg.

With COc1cc2c(Nc3cnc(OCCCC4CCCC4)nc3)ncnc2cc1OCCCN1CCCCC1 the hepatocyte CLint [1] was 2 µL/min/1e6 cells, the solubility [2] was 130 µM (≈ 67.7 µg/mL) and the logD [4] was 4.5. It also gave an IC50 [8] of 10 nM, an IC50 [9] of 20 nM and an IC50 [6] of 0.794 nM. It also gave a microsomal CLint [7] of 96 µL/min/mg.

O=C(Nc1ccc(Oc2cc(NC(=O)C3CC3)ncn2)cc1)Nc1ccc(CN2CCn3ccnc3C2)c(C(F)(F)F)c1 showed a hepatocyte CLint [1] of 9 µL/min/1e6 cells, a solubility [2] of 3 µM (≈ 1.78 µg/mL) and a logD [4] of 4.5. It also gave an IC50 [8] of 398 nM, an IC50 [9] of 3.16 nM and an IC50 [6] of 6.31 nM. It also gave a microsomal CLint [7] of 16 µL/min/mg.

For CS(=O)(=O)c1cnc(Nc2ccc(O)cc2)nc1NCc1ccccc1, the hepatocyte CLint [1] was 32 µL/min/1e6 cells, the solubility [2] was 27 µM (≈ 10 µg/mL) and the logD [4] was 2.8. The IC50 [8] was 1580 nM, the IC50 [9] was 1260 nM and the IC50 [6] was 398 nM. The microsomal CLint [7] was 5 µL/min/mg.

In the case of COc1cc2c(Nc3cnc(NC(=O)c4cccn4C)nc3)ncnc2cc1OCCCNC1CCCC1, the hepatocyte CLint [1] is reported as < 1 µL/min/1e6 cells, the solubility [2] is reported as 1000 µM (≈ 517 µg/mL) and the IC50 [3] is reported as 10 µM. It also gave a logD [4] of 1.8, an IC50 [5] of 126 nM and an IC50 [6] of 100 nM. The microsomal CLint [7] was < 3 µL/min/mg.

Work on CNc1nc(OC2CCCC2)nc2c1ncn2Cc1c(F)cccc1F yielded a hepatocyte CLint [1] of 190 µL/min/1e6 cells, a solubility [2] of 9 µM (≈ 3.23 µg/mL) and an IC50 [3] of 100 µM. It also gave a logD [4] of 4.3, an IC50 [5] of 794 nM and an IC50 [6] of 126 nM. For the same molecule, the microsomal CLint [7] was 240 µL/min/mg.
